pIC50: −log10 of the molar value.

These results are taken from US9994587B2, “HIV protease inhibitors” (priority 2014, dated 2018).

In this assay the target is T1, wildtype HIV-1 protease (Human immunodeficiency virus type 1 group M subtype B, UniProt P04585).
T1 construct: preincubated with the HIV-1 protease (wild type) enzyme in assay buffer; made in house; host or cells: Escherichia coli
The assay is described as follows: Assay for inhibition of microbial expressed HIV protease (Pepcleav). Type of assay: biochemical. As to conditions: wild type HIV-1 protease 20 pM, peptide substrate 400 micromolar, pH 5.5; mean of at least two independent experiments. The procedure: Assay for Inhibition of Microbial Expressed HIV Protease (“Pepcleav”)
Studies of the inhibition of the wildtype HIV-1 protease (which was expressed in Escherichia coli) were carried out with a peptide substrate [Val-Ser-Gln-Asn-(βnaphtyl)Ala-Pro-Ile-Val (SEQ ID NO 1)]. The inhibitor was first preincubated with the HIV-1 protease (wild type) enzyme in assay buffer (50 mM sodium acetate, pH 5.5, 100 mM NaCl, and 0.1% BSA) for 30 minutes at room temperature. Substrate was added to 400 micromolar in a total volume of 20 microliters containing 20 picomolar HIV-1 protease (final) and the reaction is incubated for 1 hour at 30° C. The reaction was quenched with the addition of formic acid and indinavir to 0.012% and 150 nM final concentrations, respectively. Product formation was determined after separation of product and substrate on a Zorbax Eclipse XDB-C18 column connected to an API 4000 mass spectrometer (Applied Biosystems) with multiple reaction monitoring (transitions were 644.5/428.9 and 615.4/422.2 (M1/M3) for product and indinavir respectively). The extent of inhibition of the reaction was determined from the peak area of the products.
Regarding `COC(=O)N[C@H](C(=O)Nc1ccccc1CCC1CNC[C@@H](COc2ccc(Cl)cc2)O1)C(c1ccccc1)c1ccccc1` (stereo partly drawn) [Example 5, methyl N-[(1S)-1-benzhydryl-2-[[2-[2-[(6S)-6-[(4-chlorophenoxy)methyl]morpholin-2-yl]ethyl]phenyl]amino]-2-oxo-ethyl]carbamate], the negative-log IC50 (pIC50) was 7.24.
In turn, `N[C@H](C(=O)Nc1cncc(F)c1CC[C@@H]1CNC[C@@H](CO)O1)C(c1ccc(F)cc1)c1ccc(F)cc1` [Example 120, 4-fluoro-N-(5-fluoro-4-{2-[(2R,6S)-6-(hydroxymethyl)morpholin-2-yl]ethyl}pyridin-3-yl)-β-(4-fluorophenyl)-L-phenylalaninamide] gave a negative-log IC50 (pIC50) of 6.42.
In turn, `N[C@@H](C(=O)Nc1cncc(F)c1CC[C@@H]1CNC[C@@H](CSc2ccc(Cl)cc2)O1)C(c1ccc(F)cc1)c1ccc(F)cc1` [Example 122, N-(4-{2-[(2R,6S)-6-{[(4-chlorophenyl)sulfanyl]methyl}morpholin-2-yl]ethyl}-5-fluoropyridin-3-yl)-4-fluoro-β-(4-fluorophenyl)-D-phenylalaninamide] showed a negative-log IC50 (pIC50) of 8.05.
`COC(=O)N[C@H](C(=O)Nc1ccccc1CC[C@@H]1CNC[C@@H](COc2ccc3ncsc3c2)O1)C(c1ccccc1)c1ccccc1` [Example 48, N-[2-(2-{(2R,6S)-6-[(1,3-benzothiazol-6-yloxy)methyl]morpholin-2-yl}ethyl)phenyl]-Nα-(methoxycarbonyl)-β-phenyl-L-phenylalaninamide] gave a pIC50 of 8.26.
With `COC(=O)N[C@H](C(=O)Nc1ccccc1CC[C@@H]1CNC[C@@H](COc2ccc(Br)cc2[N+](=O)[O-])O1)C(c1ccccc1)c1ccccc1` [Example 10, methyl N-[(1S)-1-benzhydryl-2-[[2-[2-[(2R,6S)-6-[(4-bromo-2-nitro-phenoxy)methyl]morpholin-2-yl]ethyl]phenyl]amino]-2-oxo-ethyl]carbamate] the figure was 6.92; with `COC(=O)N[C@H](C(=O)Nc1ccccc1CC[C@@H]1CNC[C@@H](CSc2ccc(Cl)cc2C)O1)C(c1ccccc1)c1ccccc1` [Example 26, methyl N-[(1S)-1-benzhydryl-2-[[2-[2-[(2R,6S)-6-[(4-chloro-2-methyl-phenyl)sulfanylmethyl]morpholin-2-yl]ethyl]phenyl]amino]-2-oxo-ethyl]carbamate], 8.89; with `COC(=O)N[C@H](C(=O)Nc1ccccc1CC[C@@H]1CNC[C@@H](CSc2ccc(Cl)cc2Cl)O1)C(c1ccccc1)c1ccccc1` [Example 25, methyl N-[(1S)-1-benzhydryl-2-[[2-[2-[(2R,6S)-6-[(2,4-dichlorophenyl)sulfanylmethyl]morpholin-2-yl]ethyl]phenyl]amino]-2-oxo-ethyl]carbamate], 8.82.
In the case of `COC(=O)N[C@H](C(=O)Nc1cnccc1CC[C@@H]1CNC[C@@H](COc2ccc(C#N)cc2)O1)C(c1ccccc1)c1ccccc1` [Example 81, N-[4-(2-{(2R,6S)-6-[(4-cyanophenoxy)methyl]morpholin-2-yl}ethyl)pyridin-3-yl]-Nα-(methoxycarbonyl)-β-phenyl-L-phenylalaninamide], the negative-log IC50 (pIC50) was 7.28.
`COC(=O)N[C@H](C(=O)Nc1c(F)cccc1CC[C@@H]1CNC[C@@H](CSc2nc3cc(F)c(Cl)cc3[nH]2)O1)C(c1ccccc1)c1ccccc1` [Example 77, N-(2-{2-[(2R,6S)-6-{[(6-chloro-5-fluoro-1H-benzimidazol-2-yl)sulfanyl]methyl}morpholin-2-yl]ethyl}-6-fluorophenyl)-Nα-(methoxycarbonyl)-β-phenyl-L-phenylalaninamide]: the pIC50 is 7.96.
With `COC(=O)N[C@H](C(=O)Nc1ccccc1CC[C@@H]1CNC[C@@H](CSc2ccc(Cl)cc2)O1)[C@@H](c1ccccc1)c1c[nH]c2ncccc12` [Example 67, (βS)-N-(2-{2-[(2R,6S)-6-{[(4-chlorophenyl)sulfanyl]methyl}morpholin-2-yl]ethyl}phenyl)-Nα-(methoxycarbonyl)-β-1H-pyrrolo[2,3-b]pyridin-3-yl-L-phenylalaninamide], the pIC50 is 9.96.

Usually pIC50 stands for the IC50 on a negative log10 scale, so that one unit is a factor of ten. A high value points to a low IC50.
